The assay has as its system IL-2 production. Briefly: Inhibition of IL-2 production in PHA-activated Jurkat cells. The assay is classed as cell-based. The note with it: Homo sapiens, PHA 2.5 μg/mL, 20 hours. The method, then:
Jurkat cells were placed in a 96 well plate (0.5 million cells per well in 1% FBS medium) then test compounds of this invention were added at different concentrations. After 10 minutes, the cells were activated with PHA (final concentration 2.5 μg/mL) and incubated for 20 hours at 37° C. under CO2. The final volume was 200 μL. Following incubation, the cells were centrifuged and the supernatants collected and stored at −70° C. prior to assaying for IL-2 production. A commercial kit (IL-2 Eli-pair, Diaclone Research, Besancon, France) was used to detect production of IL-2, from which dose response curves were obtained. The IC50 value was calculated as the concentration at which. 50% of maximum IL-2 production after stimulation was inhibited versus a non-stimulation control.

Some results are limits rather than exact numbers.

Consider 34 compounds from patent US20130142831A1, “COMPOUNDS FOR INFLAMMATION AND IMMUNE-RELATED USES” (Synta Pharmaceuticals Corp., priority 2004, published 2013).

One may read the IC50 as the concentration needed to halve the response being measured. The compound `O=C(Nc1ccc(-n2c(C(F)(F)F)nc3ccccc32)cc1)Nc1cc(F)ccc1F` [Compound 50, N′-[4-(2-trifluoromethy-benzoimidazol-1-yl)-phenyl]-N-(2,5-difluoropheyl)-urea] displayed an IC50 (bins given with μM limit) of over 1 µM.
Same read-out and setting: the result for `O=C(Nc1ccc(-n2c(C(F)(F)F)nc3ccccc32)cc1)c1cc[n+]([O-])cc1F` [Compound 51, 1-Oxo-3-fluoro-N-[4-(2-trifluoromethyl-benzoimidazol-1-yl)-phenyl]-isonicotinamide] reads over 1 µM.
Still for that read-out and setting: the result for `O=S(=O)(Nc1ccc(-n2c(C(F)(F)F)nc3ccccc32)cc1)c1cccc(F)c1F` [Compound 52, 2,3-Difluoro-N-[4-(trifluoromethyl-benzoimidazol-1-yl)-phenyl]-benzenesulfonamide] reads over 1 µM.
The same measure, in the same setting: in the case of `CC(=O)Nc1cc(NC(=O)c2cccc(F)c2F)ccc1-n1c(C(F)(F)F)nc2ccccc21` [Compound 53, 2,3-Difluoro-N-[3-acetylamino-4-(2-trifluoromethyl-benzoimidazol-1-yl)-phenyl]-benzamide] it was over 1 µM; in that of `O=C(Nc1ccc(-n2cnc3ccccc32)cc1)c1cccc(F)c1F` [Compound 54, 2,3-Difluoro-N-[4-(benzoimidazol-1-yl)-phenyl]-benzamide], over 1 µM; in that of `Cc1cc(-n2c(C(F)(F)F)nc3ccccc32)ccc1NC(=O)c1cccc(F)c1F` [Compound 55, 2,3-Difluoro-N-[2-methyl-4-(2-trifluoromethyl-benzoimidazol-1-yl)-phenyl]-benzamide], over 1 µM.
Under “bins given with μM limit”, `O=C(Nc1ccc(-n2c(C(F)(F)F)nc3cc(N4C(=O)c5ccccc5C4=O)ccc32)cc1)c1cccc(F)c1F` [Compound 57, 2,3-Difluoro-N-{4-[2-trifluoromethyl-5-(1,3-dioxo-isoindol-2-yl)-benzoimidazol-1-yl]-phenyl}-benzamide] registered an IC50 of over 1 µM.
Same read-out and setting: in the case of `Cc1nnsc1C(=O)Nc1ccc(-n2c(C(F)(F)F)nc3cccnc32)cc1` [Compound 58, 4-Methyl-[1,2,3]thiadiazole-5-carboxylic acid {N-[4-(2-trifluoromethyl-imidazo[4,5-b]pyrid-3-yl)-phenyl]} amide] it was over 1 µM; in that of `O=C(Nc1ccc(-n2c(C(F)(F)F)nc3cc(O)c(O)cc32)cc1)c1cccc(F)c1F` [Compound 60, 2,3-Difluoro-N-[4-(2-trifluoromethyl-5,6-dihydroxy-benzoimidazol-1-yl)-phenyl]-benzamide], over 1 µM.
`O=C(Nc1ccc(-n2c(C(F)(F)F)nc3cnccc32)cc1)c1cccc(F)c1F` [Compound 61, 2,3-Difluoro-N-[4-(2-trifluoromethyl-imidazo[4,5-c]pyrid-1-yl)-phenyl]-benzamide] displayed an IC50 (bins given with μM limit) of over 1 µM.
The same measure, in the same setting: the result for `Cc1nnsc1C(=O)Nc1ccc(-n2c(C(F)(F)F)nc3ccccc32)nc1` [Compound 62, 4-Methyl-[1,2,3]thiadiazole-5-carboxylic acid {N-[2-(2-trifluoromethyl-benzoimidazol-1-yl)-pyrid-5-yl]} amide] reads over 1 µM.
In turn, `COc1ccc2c(c1)nc(C(F)(F)F)n2-c1ccc(NC(=O)c2c(Cl)cc(Cl)cc2Cl)cc1` [Compound 63, 2,4,6-Trichloro-N-[4-(2-trifluoromethyl-5-methoxy-benzoimidazol-1-yl)-phenyl]-benzamide] returned an IC50 (bins given in nM) of 0.1 to 0.5 µM.
Same read-out and setting: in the case of `O=C(Nc1ccc(-n2c(C(F)(F)F)nc3cc(C(F)(F)F)ccc32)cc1)c1cccc(F)c1F` [Compound 64, 2,3-Difluoro-N-{4-[2,5-di-(trifluoromethyl)-benzoimidazol-1-yl]-phenyl}-benzamide] it was 0.1 to 0.5 µM; in that of `CS(=O)(=O)c1ccc2c(c1)nc(C(F)(F)F)n2-c1ccc(NC(=O)c2cccc(F)c2F)cc1` [Compound 65, 2,3-Difluoro-N-[4-(2-trifluoromethyl-5-methanesulfonyl-benzoimidazol-1-yl)-phenyl]-benzamide], 0.1 to 0.5 µM; in that of `CCCCc1ccc(C(=O)Nc2ccc(-n3c(C(F)(F)F)nc4cc(OC)ccc43)cc2)cc1` [Compound 66, 4-Butyl-N-[4-(2-trifluoromethyl-5-methoxy-benzoimidazol-1-yl)-phenyl]-benzamide], 0.1 to 0.5 µM.
On to `CC(C)(C)c1cnc(-c2ccc3c(c2)nc(C(F)(F)F)n3-c2ccc(NC(=O)c3cc(F)ccc3F)cc2)o1` [Compound 67, 2,5-Difluoro-N-{4-[2-trifluoromethyl-5-(5-tert-butyl-oxazol-2-yl)-benzoimidazol-1-yl]-phenyl}-benzamide], for which the IC50 (bins given with μM limit) is over 1 µM.
The same measure, in the same setting: the result for `CC(C)(C)c1cnc(-c2ccc3c(c2)nc(C(F)(F)F)n3-c2ccc(NC(=O)c3cccc(F)c3F)cc2)o1` [Compound 68, 2,3-Difluoro-N-{4-[2-trifluoromethyl-5-(5-tert-butyl-oxazol-2-yl)-benzoimidazol-1-yl]-phenyl}-benzamide] reads over 1 µM.
Turning to `CC(C)(C)c1cnc(-c2ccc3c(c2)nc(C(F)(F)F)n3-c2ccc(NC(=O)c3ccco3)cc2)o1` [Compound 69, Furan-2-carboxylic acid (N-{4-[2-trifluoromethyl-5-(5-tert-butyl-oxazol-2-yl)-benzoimidazol-1-yl]-phenyl}) amide], the IC50 (bins given in nM) lay in the range of 0.1 to 0.5 µM.
Still for that read-out and setting: the result for `O=C(Nc1ccc(-c2c(C(F)(F)F)nc3ccccn23)cc1)c1cccc(F)c1F` [Compound 70, 2,3-Difluoro-N-[4-(2-trifluoromethyl-imidazo[1,2-a]pyrid-3-yl)-phenyl]-benzamide] reads 0.1 to 0.5 µM; that for `COc1ccc2c(c1)nc(C(F)(F)F)n2-c1ccc(NC(=O)c2cc(F)c(F)c(F)c2F)cc1` [Compound 71, 2,3,4,5-Tetrafluoro-N-[4-(2-trifluoromethyl-5-methoxy-benzoimidazol-1-yl)-phenyl]-benzamide], under 0.1 µM; that for `COc1ccc2c(c1)nc(C(F)(F)F)n2-c1ccc(NC(=O)c2ccc(-c3ccccc3)cc2)cc1` [Compound 72, 4-Phenyl-N-[4-(2-trifluoromethyl-5-methoxy-benzoimidazol-1-yl)-phenyl]-benzamide], 0.1 to 0.5 µM.
Still for that read-out and setting: in the case of `COc1ccc2c(c1)nc(C(F)(F)F)n2-c1ccc(NC(=O)c2ccc(I)cc2)cc1` [Compound 73, 4-Iodo-N-[4-(2-trifluoromethyl-5-methoxy-benzoimidazol-1-yl)-phenyl]-benzamide] it was 0.1 to 0.5 µM; in that of `COc1ccc2c(c1)nc(C(F)(F)F)n2-c1ccc(NC(=O)c2ccc3ccccc3c2)cc1` [Compound 74, Naphthalene-2-carboxylic acid {N-[4-(2-trifluoromethyl-5-methoxy-benzoimidazol-1-yl)-phenyl]} amide], 0.1 to 0.5 µM; in that of `COc1ccc2c(c1)nc(C(F)(F)F)n2-c1ccc(NC(=O)c2ccc(C)cc2)cc1` [Compound 76, 4-Methyl-N-[4-(2-trifluoromethyl-5-methoxy-benzoimidazol-1-yl)-phenyl]-benzamide], 0.1 to 0.5 µM.
Still for that read-out and setting: the result for `COc1ccc2c(c1)nc(C(F)(F)F)n2-c1ccc(NC(=O)c2ccc(C#N)cc2)cc1` [Compound 77, 4-Cyano-N-[4-(2-trifluoromethyl-5-methoxy-benzoimidazol-1-yl)-phenyl]-benzamide] reads 0.1 to 0.5 µM; that for `COc1ccc2c(c1)nc(C(F)(F)F)n2-c1ccc(NC(=O)c2ccc([N+](=O)[O-])cc2)cc1` [Compound 78, 4-Nitro-N-[4-(2-trifluoromethyl-5-methoxy-benzoimidazol-1-yl)-phenyl]-benzamide], 0.1 to 0.5 µM; that for `CCc1ccc(C(=O)Nc2ccc(-n3c(C(F)(F)F)nc4cc(OC)ccc43)cc2)cc1` [Compound 79, 4-Ethyl-N-[4-(2-trifluoromethyl-5-methoxy-benzoimidazol-1-yl)-phenyl]-benzamide], 0.1 to 0.5 µM.
Turning to `COc1ccc2c(c1)nc(C(F)(F)F)n2-c1ccc(NC(=O)c2ccc(C(F)(F)F)cc2)cc1` [Compound 80, 4-Trifluoromethyl-N-[4-(2-trifluoromethyl-5-methoxy-benzoimidazol-1-yl)-phenyl]-benzamide], the IC50 (bins given in nM) was in the range of 0.1 to 0.5 µM.
The same measure, in the same setting: the result for `COc1ccc2c(c1)nc(C(F)(F)F)n2-c1ccc(NC(=O)c2cc([N+](=O)[O-])cc([N+](=O)[O-])c2)cc1` [Compound 81, 3,5-Dinitro-N-[4-(2-trifluoromethyl-5-methoxy-benzoimidazol-1-yl)-phenyl]-benzamide] reads 0.1 to 0.5 µM; that for `CCCC(=O)Nc1ccc(-n2c(C(F)(F)F)nc3cc(OC)ccc32)cc1` [Compound 82, N-[4-(2-trifluoromethyl-5-methoxy-benzoimidazol-1-yl)-phenyl]-butyramide], 0.1 to 0.5 µM; that for `COc1ccc2c(c1)nc(C(F)(F)F)n2-c1ccc(NC(=O)c2cccc3ccccc23)cc1` [Compound 83, Naphthalene-1-carboxylic acid {N-[4-(2-trifluoromethyl-5-methoxy-benzoimidazol-1-yl)-phenyl]} amide], 0.1 to 0.5 µM.
Take `COc1ccc2c(c1)nc(C(F)(F)F)n2-c1ccc(NC(=O)C=C(C)C)cc1` [Compound 84, 3-Methyl-N-[4-(2-trifluoromethyl-5-methoxy-benzoimidazol-1-yl)-phenyl]-but-2-enoic acid amide]: the IC50 (bins given in nM) lay in the range of 0.1 to 0.5 µM.
On the same count and under the same terms, the result for `CCCc1ccc(C(=O)Nc2ccc(-n3c(C(F)(F)F)nc4cc(OC)ccc43)cc2)cc1` [Compound 85, 4-Propyl-N-[4-(2-trifluoromethyl-5-methoxy-benzoimidazol-1-yl)-phenyl]-benzamide] reads 0.1 to 0.5 µM; that for `COc1ccc2c(c1)nc(C(F)(F)F)n2-c1ccc(NC(=O)c2cccs2)cc1` [Compound 86, Thiophene-2-carboxylic acid {N-[4-(2-trifluoromethyl-5-methoxy-benzoimidazol-1-yl)-phenyl]} amide], 0.1 to 0.5 µM.
